pIC50: −log10 of the molar value.
Experiments:
[1] = biological target: T1, human kinesin spindle protein KSP/Eg5 (Homo sapiens, UniProt P52732); assay: Inhibition of the kinesin spindle protein KSP/Eg5 (ATPase, malachite green); type: biochemical; details: 10 nM KSP motor domain, 500 μM ATP, 2 h RT
T1 construct: The motor domain of the human kinesin spindle protein KSP/Eg5; purchased tebu-bio/Cytoskeleton Inc 027EG01-XL
T1 sequence (P52732 18-359 limits assumed): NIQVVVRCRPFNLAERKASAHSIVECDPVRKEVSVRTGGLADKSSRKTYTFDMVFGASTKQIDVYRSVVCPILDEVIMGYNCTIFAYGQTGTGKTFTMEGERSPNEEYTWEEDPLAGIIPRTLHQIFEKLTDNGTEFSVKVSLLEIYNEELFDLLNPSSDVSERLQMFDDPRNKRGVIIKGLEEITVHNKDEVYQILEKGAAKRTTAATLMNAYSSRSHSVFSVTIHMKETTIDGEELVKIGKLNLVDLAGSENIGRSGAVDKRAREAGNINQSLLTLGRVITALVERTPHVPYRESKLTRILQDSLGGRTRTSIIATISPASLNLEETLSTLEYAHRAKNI
Protocol: C-1b Determination of the Inhibition of the Kinesin Spindle Protein KSP/Eg5 by Selected Examples
The motor domain of the human kinesin spindle protein KSP/Eg5 (from tebu-bio/Cytoskeleton Inc, No. 027EG01-XL) is incubated at a concentration of 10 nM with 50 μg/ml taxol- (from Sigma No. T7191-5MG) stabilized microtubuli (bovine or porcine, from tebu-bio/Cytoskeleton Inc) for 5 min at RT in 15 mM PIPES, pH 6.8 (5 mM MgCl2 and 10 mM DTT, from Sigma). The freshly prepared mixture is aliquoted into a 384-well MTP. The inhibitors to be examined at concentrations of 1.0×10^−6 M to 1.0×10^−13 and ATP (final concentration 500 μM, from Sigma) are then added. Incubation is at RT for 2 h. ATPase activity is detected by detecting the inorganic phosphate formed using malachite green (from Biomol). […] The individual data of the dose-activity curve are eight-fold determinations. The IC50 values are means of three independent experiments.

[2] = Cell permeability, flux assay using Caco-2 cells; details: human, Caco-2
Protocol: C-3 In Vitro Tests for Determining Cell Permeability
The cell permeability of a substance can be investigated by means of in vitro testing in a flux assay using Caco-2 cells [M. D. Troutman and D. R. Thakker, Pharm. […] For this purpose, the cells were cultured for 15-16 days on 24-well filter plates. For the determination of permeation, the respective working example was applied in a HEPES buffer to the cells either apically (A) or basally (B) and incubated for 2 hours. After 0 hours and after 2 hours, samples were taken from the cis and trans compartments. The samples were separated by HPLC (Agilent 1200, Böblingen, Germany) using reverse phase columns.
Of critical importance for toxophores which are released intracellularly is the permeability from B to A [Papp(B-A)] and the ratio of Papp(B-A) to Papp(A-B) (efflux ratio): the lower this permeability, the slower the active and passive transport processes of the substance through the monolayer of Caco-2 cells.

CC(C)(C)[C@H](c1nc(-c2cc(F)ccc2F)cn1Cc1ccccc1)N(CC[C@H](N)C(=O)NCCC(=O)Nc1ccc(N2C(=O)CC(SC[C@H](N)C(=O)O)C2=O)cc1)C(=O)CO (stereo partly drawn) [Example 66, S-(1-{4-[(N-{(2S)-2-Amino-4-[{(1R)-1-[1-benzyl-4-(2,5-difluorophenyl)-1H-imidazol-2-yl]-2,2-dimethylpropyl}(glycoloyl)amino]butanoyl}-beta-alanyl)amino]phenyl}-2,5-dioxopyrrolidin-3-yl)-L-cysteine] gave a pIC50 [1] of 8.09, a Papp B→A at 2 h [2] of 2.7 ×10⁻⁶ cm/s and an efflux ratio at 2 h [2] of 12.

With CC(C)(C)[C@H](c1nc(-c2cc(F)ccc2F)cn1Cc1ccccc1)N(CC[C@H](N)C(=O)N[C@H]1CCC[C@H]1C(=O)NCCN1C(=O)CC(SC[C@H](N)C(=O)O)C1=O)C(=O)CO (stereo partly drawn) [Example 67, S-{1-[2-({[(1R,2S)-2-({(2S)-2-Amino-4-[{(1R)-1-[1-benzyl-4-(2,5-difluorophenyl)-1H-imidazol-2-yl]-2,2-dimethylpropyl}(glycoloyl)amino]butanoyl}amino)cyclopentyl]carbonyl}amino)ethyl]-2,5-dioxopyrrolidin-3-yl}-L-cysteine] the pIC50 [1] was 8.09, the Papp B→A at 2 h [2] was 2.5 ×10⁻⁶ cm/s and the efflux ratio at 2 h [2] was 15.

C[C@H](NC(=O)CCNC(=O)[C@@H](N)CCN(C(=O)CO)[C@@H](c1nc(-c2cc(F)ccc2F)cn1Cc1ccccc1)C(C)(C)C)C(=O)N[C@@H](CCCNC(N)=O)C(=O)Nc1ccc(N2C(=O)CC(SC[C@H](N)C(=O)O)C2=O)cc1 (stereo partly drawn) [Example 68, N-{(2S)-2-Amino-4-[{(1R)-1-[1-benzyl-4-(2,5-difluorophenyl)-1H-imidazol-2-yl]-2,2-dimethylpropyl}(glycoloyl)amino]butanoyl}-beta-alanyl-L-alanyl-N-[4-(3-{[(2R)-2-amino-2-carboxyethyl]sulphanyl}-2,5-dioxopyrrolidin-1-yl)phenyl]-N^5-carbamoyl-L-ornithinamide] showed a pIC50 [1] of 8.49, a Papp B→A at 2 h [2] of 0.18 ×10⁻⁶ cm/s and an efflux ratio at 2 h [2] of 1.9.

Molecule CC(C)[C@H](NC(=O)CCNC(=O)[C@@H](N)CCN(C(=O)CO)[C@@H](c1nc(-c2cc(F)ccc2F)cn1Cc1ccccc1)C(C)(C)C)C(=O)N[C@@H](CCCNC(N)=O)C(=O)Nc1ccc(CC(=O)NCCN2C(=O)CC(SC[C@H](N)C(=O)O)C2=O)cc1 (stereo partly drawn) [Example 69, N-{(2S)-2-Amino-4-[{(1R)-1-[1-benzyl-4-(2,5-difluorophenyl)-1H-imidazol-2-yl]-2,2-dimethylpropyl}(glycoloyl)amino]butanoyl}-beta-alanyl-L-valyl-N-[4-(2-{[2-(3-{[(2R)-2-amino-2-carboxyethyl]sulphanyl}-2,5-dioxopyrrolidin-1-yl)ethyl]amino}-2-oxoethyl)phenyl]-N^5-carbamoyl-L-ornithinamide] has a pIC50 [1] of 8.32, a Papp B→A at 2 h [2] of 0.15 ×10⁻⁶ cm/s and an efflux ratio at 2 h [2] of 2.

In the case of C[C@H](NC(=O)CCNC(=O)[C@@H](N)CCN(C(=O)CO)[C@@H](c1nc(-c2cc(F)ccc2F)cn1Cc1ccccc1)C(C)(C)C)C(=O)N[C@@H](CCCNC(N)=O)C(=O)Nc1ccc(CC(=O)NCCN2C(=O)CC(SC[C@H](N)C(=O)O)C2=O)cc1 (stereo partly drawn) [Example 70, N-{(2S)-2-Amino-4-[{(1R)-1-[1-benzyl-4-(2,5-difluorophenyl)-1H-imidazol-2-yl]-2,2-dimethylpropyl}(glycoloyl)amino]butanoyl}-beta-alanyl-L-alanyl-N-[4-(2-{[2-(3-{[(2R)-2-amino-2-carboxyethyl]sulphanyl}-2,5-dioxopyrrolidin-1-yl)ethyl]amino}-2-oxoethyl)phenyl]-N^5-carbamoyl-L-ornithinamide], the pIC50 [1] was 8.50, the Papp B→A at 2 h [2] was 0.16 ×10⁻⁶ cm/s and the efflux ratio at 2 h [2] was 1.9.

CC(C)(C)[C@H](c1nc(-c2cc(F)ccc2F)cn1Cc1ccccc1)N(CC[C@H](N)C(=O)NCCOCCOCCOCCC(=O)O)C(=O)CO.O=C(O)C(F)(F)F [Example 71, (15S,19R)-15-Amino-19-[1-benzyl-4-(2,5-difluorophenyl)-1H-imidazol-2-yl]-18-glycoloyl-20,20-dimethyl-14-oxo-4,7,10-trioxa-13,18-diazahenicosan-1-oic acid/trifluoroacetic acid (1:1)] showed a pIC50 [1] of 8.91, a Papp B→A at 2 h [2] of 28 ×10⁻⁶ cm/s and an efflux ratio at 2 h [2] of 280.

Molecule CC(C)[C@H](NC(=O)CCNC(=O)[C@@H](N)CCN(C(=O)CO)[C@@H](c1nc(-c2cc(F)ccc2F)cn1Cc1ccccc1)C(C)(C)C)C(=O)N[C@@H](CCCNC(N)=O)C(=O)O.O=C(O)C(F)(F)F [Example 72, N-{(2S)-2-Amino-4-[{(1R)-1-[1-benzyl-4-(2,5-difluorophenyl)-1H-imidazol-2-yl]-2,2-dimethylpropyl}(glycoloyl)amino]butanoyl}-beta-alanyl-L-valyl-N^5-carbamoyl-L-ornithine/trifluoroacetic acid (1:1)] has a pIC50 [1] of 8.31, a Papp B→A at 2 h [2] of 0.25 ×10⁻⁶ cm/s and an efflux ratio at 2 h [2] of 2.1.

C[C@H](NC(=O)CCNC(=O)[C@@H](N)CCN(C(=O)CO)[C@@H](c1nc(-c2cc(F)ccc2F)cn1Cc1ccccc1)C(C)(C)C)C(=O)N[C@@H](CCCNC(N)=O)C(=O)O.O=C(O)C(F)(F)F [Example 73, N-{(2S)-2-Amino-4-[{(1R)-1-[1-benzyl-4-(2,5-difluorophenyl)-1H-imidazol-2-yl]-2,2-dimethylpropyl}(glycoloyl)amino]butanoyl}-beta-alanyl-L-alanyl-N^5-carbamoyl-L-ornithine/trifluoroacetic acid (1:1)] showed a pIC50 [1] of 8.34, a Papp B→A at 2 h [2] of 0.46 ×10⁻⁶ cm/s and an efflux ratio at 2 h [2] of 2.7.

In the case of CC(C)(C)[C@H](c1nc(-c2cc(F)ccc2F)cn1Cc1ccccc1)N(CC[C@H](N)C(=O)NCCC(=O)N[C@@H](Cc1ccc(N)cc1)C(=O)O)C(=O)CO.O=C(O)C(F)(F)F.O=C(O)C(F)(F)F [Example 74, N-{(2S)-2-Amino-4-[{(1R)-1-[1-benzyl-4-(2,5-difluorophenyl)-1H-imidazol-2-yl]-2,2-dimethylpropyl}(glycoloyl)amino]butanoyl}-beta-alanyl-4-amino-L-phenylalanine/trifluoroacetic acid (1:2)], the pIC50 [1] was 8.21, the Papp B→A at 2 h [2] was 2.6 ×10⁻⁶ cm/s and the efflux ratio at 2 h [2] was 15.

In the case of CC(C)(C)[C@H](c1nc(-c2cc(F)ccc2F)cn1Cc1ccccc1)N(CC[C@H](N)C(=O)O)C(=O)CO.O=C(O)C(F)(F)F [Example 76, (2S)-2-Amino-4-[{(1R)-1-[1-benzyl-4-(2,5-difluorophenyl)-1H-imidazol-2-yl]-2,2-dimethylpropyl}(glycoloyl)amino]butanoic acid/trifluoroacetic acid (1:1)], the pIC50 [1] was 8.63, the Papp B→A at 2 h [2] was 5.5 ×10⁻⁶ cm/s and the efflux ratio at 2 h [2] was 27.

Work on CC(C)(C)[C@H](c1nc(-c2cc(F)ccc2F)cn1Cc1ccccc1)N(CC[C@H](N)CN)C(=O)CO.O=C(O)C(F)(F)F [Example 78, Trifluoroacetic acid/N-{(1R)-1-[1-benzyl-4-(2,5-difluorophenyl)-1H-imidazol-2-yl]-2,2-dimethylpropyl}-N-[(3S)-3,4-diaminobutyl]-2-hydroxyacetamide (1:1)] yielded a pIC50 [1] of 8.31, a Papp B→A at 2 h [2] of 14 ×10⁻⁶ cm/s and an efflux ratio at 2 h [2] of 44.

CC(C)(C)[C@H](c1nc(-c2cc(F)ccc2F)cn1Cc1ccccc1)N(CC[C@H](N)C(=O)NCCN)C(=O)CO.O=C(O)C(F)(F)F.O=C(O)C(F)(F)F [Example 80, Trifluoroacetic acid/(2S)-2-amino-N-(2-aminoethyl)-4-[{(1R)-1-[1-benzyl-4-(2,5-difluorophenyl)-1H-imidazol-2-yl]-2,2-dimethylpropyl}(glycoloyl)amino]butanamide (2:1)] showed a pIC50 [1] of 8.43, a Papp B→A at 2 h [2] of 20 ×10⁻⁶ cm/s and an efflux ratio at 2 h [2] of 22.

— patent US10022453B2 (BAYER PHARMA AKTIENGESELLSCHAFT, priority 2013, dated 2018)
